Test results: US8604048B2, “Pyridocarbazole type compounds and applications thereof” (Centre National de la Recherche Scientifique, priority 2009, dated 2013)

What was measured:
[1] = test system: microtubules of HeLa cells; test: Stability of microtubules at low temperature (4° C.); type: cell-based, Human; details: 2 h with compound then 30 minutes at 4° C.
Procedure: FIG. 3 represents the effect of the Compound 1 of the invention on the stability of microtubules at low temperature. The HeLa cells are incubated with paclitaxel or without, with the Compound 1 of the invention, for 2 h, then exposed for 30 minutes at 4° C. The amount of tubulin in the cells treated with the Compound 1 of the invention is measured with a microplate reader, then reported as a percentage of the amount of tubulin measured in the wells containing the cells treated with paclitaxel (100%);
In the living cell, microtubules are dynamic structures, which oscillate between assembling and disassembling phases. Various types of tests may be carried out in order to assess the stabilizing effect of the molecules on the microtubule network. Thus, the binding of paclitaxel to the microtubules, or the binding of stabilizing proteins such as STOP proteins (Bosc et al., 2003) may protect the microtubule network from a depolymerization induced by an incubation of the cells at 4° C. Furthermore, molecules capable of slowing down the dynamics of the microtubules may be identified by analyzing the resistance of cell microtubules to a depolymerization induced by nocodazole. In the absence of a stabilizing compound, the microtubules depolymerize in the presence of nocodazole (FIG. 2). […]

[2] = test system: purified tubulin; test: In vitro assembly of purified tubulin; type: biochemical; details: tubulin 1 mg/ml; Compound 1 at 25, 50, 100 μM
Procedure: FIG. 5 compares the effects of the Compound 1 of the invention with the effect of paclitaxel (Taxol®) on the assembly of the tubulin purified in vitro. Purified tubulin (1 mg/ml) is incubated in PEM buffer in the presence of GTP (1 mM), MgCl2 (5 mM), DAPI (10 μM) at 37° C. The effect of Compound 1 of the invention at various concentrations (×25 μM, ⊚ 50 μM and Δ 100 μM) is compared to that of paclitaxel (Taxol®) (▪) and of DMSO ( ? );
In order to know whether Compound 1 of the invention exerts its stabilizing effect via a direct action on tubulin, such as paclitaxel does, or by means an effector, its effect on the in vitro assembly of tubulin in microtubules has been analyzed. The first experiments were carried out on purified tubulin (1 mg/ml).

[3] = test system: microtubules of HeLa cells; test: Resistance of microtubules to nocodazole-induced depolymerization; type: cell-based, Human; details: 2 h with compound then 30 minutes nocodazole
Procedure: 6. a step of analysis of the effect of the compound to be tested on the dynamics of the microtubule network. For this, HeLa cells are incubated for 2 h with the compound to be tested, then optionally treated with 10 μM nocodazole for 30 minutes.
FIG. 4 represents the effect of nocodazole on the microtubules of the HeLa cells treated with the Compound 1 of the invention. The HeLa cells are incubated with paclitaxel or without, with the Compound 1 of the invention for 2 h, then exposed for 30 minutes to nocodazole. The amount of tubulin in the cells treated with the Compound 1 of the invention is measured with a microplate reader, then reported as a percentage of the amount of tubulin measured in the wells containing the cells treated with paclitaxel;
In the living cell, microtubules are dynamic structures, which oscillate between assembling and disassembling phases. Various types of tests may be carried out in order to assess the stabilizing effect of the molecules on the microtubule network. Thus, the binding of paclitaxel to the microtubules, or the binding of stabilizing proteins such as STOP proteins (Bosc et al., 2003) may protect the microtubule network from a depolymerization induced by an incubation of the cells at 4° C. […]

[4] = test system: MES-SA cells; test: Cell growth test (MTT), MES-SA; type: cell-based; details: Homo sapiens, MTT test after 48 h, read-out: IC50 (concentration necessary to inhibit 50% of cell growth)
Procedure: The cell growth tests are carried out in transparent 96-well microplates (Greiner) after having seeded 100 μl/well of a cell solution having 2·10^5 cells/ml to 5·10^5 cells/ml (depending on the cell lines). After incubating for 24 h at 37° C. with 5% CO2, the culture medium is removed and replaced with solutions of the molecule to be tested at various concentrations. The cells are incubated with these molecules for an additional 48 h at 37° C. with 5% CO2. After elimination of the medium, the cells are washed with blank RPMI (Gibco, Invitrogen) then incubated with 3-(4,5-dimethylthiazol-2-yl)-2,5-diphenyltetrazolium bromide or MTT (0.5 mg/ml final concentration) for 4 h at 37° C. with 5% CO2. MTT (Sigma Aldrich) makes it possible to estimate the viability of the cells by measuring the activity of a mitochondrial enzyme. Indeed, in living cells, mitochondrial dehydrogenases are capable of cleaving the tetrazolium ring, thus leading to the formation of formazan crystals that are insoluble in an aqueous medium. These crystals are dissolved with the addition of a solubilizing solution (isopropanol, 10% Triton X100, 0.1 N HCl). After stirring, the absorbance is measured at 570 nm using the FLUOstar OPTIMA microplate reader. […]
The viability of the cells was evaluated using an MTT test after 48 h of exposure with various concentrations of molecules (from 100 μM to 0.001 μM). […]

## Cc1c2cc[nH]c(=O)c2c(C)c2c1[nH]c1ccc(OC(=O)c3ccccc3)cc12 [Compound 1, 9-benzoyloxy-5,11-dimethyl-2H,6H-pyrido[4,3-b]carbazol-1-one]
[1]
  Protection of microtubules from cold-induced depolymerization: not able to protect the microtubules
[2]
  Assembly of purified tubulin in vitro: No assembly is observed
[3]
  Protection of microtubules from nocodazole-induced depolymerization: prevents, in a dose-dependent manner
[4]
  IC50: 26 µM
